Test results taken from patent US20160256472A1, “COMPOSITIONS AND METHODS OF ADMINISTERING SAME” (PALMAYA PTY LTD, priority 2013, published 2016).
Entries after “also recorded” stand apart in the source; their conditions may differ.

Legend:
[1] = system: craving and craving anxiety for smoking, alcohol or drug use; assay: Pilot study case reports: craving and craving anxiety after rapid (nasal/sublingual) delivery of micro-doses; format: in vivo, human; details: Example 7: bupropion 250 micrograms added, nasal delivery
Description: About 40-50 minutes later the craving anxiety for smoking started to climb.
Their craving for smoking and alcohol were linked making smoking more severe during times of alcohol use.
This profound change depends on them giving themself one or two doses before getting out of bed in the morning as this is the most severe craving in the day.
They averaged 20 doses per day.

[2] = cited from earlier work
[3] = in vivo; cited from earlier work
[4] = Oral naltrexone absorption and presence in blood stream; details: standard oral administration, one off dose of 50 mg per day
Description: As with all addictions, craving anxiety builds and is then reduced at the time of drug use or when the habit is repeated. The cycle then repeats itself. Craving may present itself with anxiety or in some cases presents itself where the individual places himself in a risky situation or searches for the substance or opportunity for the substance or event.

smoking addiction = details: Cochrane review; cited from earlier work
[5] = oral dosage form, 50 mg per day; cited from earlier work

In the case of CC(NC(C)(C)C)C(=O)c1cccc(Cl)c1 (stereo not shown) [bupropion], the “effect of bupropion on the effectiveness of the flumazenil/naltrexone combination” value [1] is reported as “maximise the effectiveness”.

In the case of CCOC(=O)c1ncn2c1CN(C)C(=O)c1cc(F)ccc1-2 [flumazenil], the side effects ([2]; intravenous flumazenil, literature) is given as “panic attacks or fitting”, the safe dose ([2]; intravenous injection, recorded by Mims) is given as “up to 100 mg” and the half-life [3] is given as “less than one”.

For O=C1CC[C@@]2(O)[C@H]3Cc4ccc(O)c5c4[C@@]2(CCN3CC2CC2)[C@H]1O5 [naltrexone], the “time naltrexone is undetectable in the blood stream” value [4] is given as 18 hours a day, the “efficacy in smoking addiction / smoking cessation” value (smoking addiction) is given as “does not give any evidence of smoking cessation; also recorded: not effective” and the “time after administration at which oral naltrexone disappears from the blood stream” value [5] is given as “six”.
